Results from US20120225061A1, “TETRASUBSTITUTED CYCLOHEXYL COMPOUNDS AS KINASE INHIBITORS” (priority 2011, published 2012).

Tests used:
[1] = system: KMS11 (human myeloma cell line); test: Cell proliferation assay (CellTiter-Glo) in KMS11 cells; assay type: cell-based; settings: KMS-11, 72 h, Table 5, 3 days, read-out: KMS11-luc EC50
Procedure: KMS11 (human myeloma cell line), were cultured in IMDM supplemented with 10% FBS, sodium pyruvate and antibiotics. Cells were plated in the same medium at a density of 2000 cells per well into 96 well tissue culture plates, with outside wells vacant, on the day of assay.
Test compounds supplied in DMSO were diluted into DMSO at 500 times the desired final concentrations before dilution into culture media to 2 times final concentrations.
After 3 days plates were equilibrated to room temperature and equal volume of CellTiter-Glow Reagent (Promega) was added to the culture wells. The plates were agitated briefly and luminescent signal was measured with luminometer.

Pim1 kinase = Pim1 kinase (Homo sapiens, UniProt P11309); test: Pim1 AlphaScreen assay (high ATP)
Procedure: (§1) The activity of Pim 1, Pim 2, & Pim 3 is measured using a homogeneous bead based system quantifying the amount of phosphorylated peptide substrate resulting from kinase-catalyzed phosphoryl transfer to a peptide substrate. Compounds to be tested are dissolved in 100% DMSO and directly distributed to a white 384-well plate at 0.25 μl per well. […] This is followed by the addition of 5 μl/well of Pim 1, Pim 2 or Pim 3 kinase in assay buffer (concentrations described below). Final assay concentrations (described below) are in 2.5% DMSO. The reactions are performed for ˜2 hours, then stopped by the addition of 10 μl of 0.75 μg/ml anti-phospho Ser/Thr antibody (Cell Signaling), 10 μg/ml Protein A AlphaScreen beads (Perkin Elmer), and 10 μg/ml streptavidin coated AlphaScreen beads in stop/detection buffer (50 mM EDTA, 95 mM Tris, pH=7.5, 0.01% Tween-20). The stopped reactions are incubated overnight in the dark. The phosphorylated peptide is detected via an oxygen anion initiated chemiluminescence/fluorescence cascade using the Envision plate reader (Perkin Elmer).

Pim2 kinase = Pim2 kinase (Homo sapiens, UniProt Q9P1W9); test: Pim2 AlphaScreen assay (high ATP)
Procedure: as §1

Pim3 kinase = Pim3 kinase (Homo sapiens, UniProt Q86V86); test: Pim3 AlphaScreen assay (high ATP)
Procedure: as §1

Pim1 kinase, sequence (P11309 whole entry): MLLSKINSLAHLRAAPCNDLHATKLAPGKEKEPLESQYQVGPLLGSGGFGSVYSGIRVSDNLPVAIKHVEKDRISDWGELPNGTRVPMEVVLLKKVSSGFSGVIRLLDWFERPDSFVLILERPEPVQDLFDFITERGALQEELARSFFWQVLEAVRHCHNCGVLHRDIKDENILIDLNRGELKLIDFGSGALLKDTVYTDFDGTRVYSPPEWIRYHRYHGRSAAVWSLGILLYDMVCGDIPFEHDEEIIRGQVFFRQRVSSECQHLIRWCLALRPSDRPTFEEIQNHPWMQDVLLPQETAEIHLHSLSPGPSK
Pim2 kinase, sequence (Q9P1W9 whole entry): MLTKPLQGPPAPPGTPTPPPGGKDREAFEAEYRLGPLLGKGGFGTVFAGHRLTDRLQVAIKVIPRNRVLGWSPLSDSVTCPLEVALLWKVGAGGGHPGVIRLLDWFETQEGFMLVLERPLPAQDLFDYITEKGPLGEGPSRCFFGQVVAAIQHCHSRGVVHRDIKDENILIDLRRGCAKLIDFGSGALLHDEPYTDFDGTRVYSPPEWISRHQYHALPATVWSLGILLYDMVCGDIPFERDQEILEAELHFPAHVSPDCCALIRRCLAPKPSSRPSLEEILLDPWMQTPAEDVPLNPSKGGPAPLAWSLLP

Row | EC50 [1] | IC50 (Pim1 kinase) | IC50 (Pim2 kinase) | IC50 (Pim3 kinase) | SMILES
1 | 57 nM | 0.08 nM | 6.31 nM | 2.09 nM | COCCOc1cc(F)c(-c2nc(C(=O)Nc3cnccc3[C@H]3C[C@@H](N)[C@](C)(O)[C@@H](C)C3)ccc2F)c(F)c1 [Example 7, N-(4-((1R,3R,4R,5S)-3-amino-4-hydroxy-4,5-dimethylcyclohexyl)pyridin-3-yl)-6-(2,6-difluoro-4-(2-methoxyethoxy)phenyl)-5-fluoropicolinamide]
2 | 234 nM | 0.08 nM | 6.98 nM | 2.04 nM | CSc1cc(F)c(-c2nc(C(=O)Nc3cnccc3[C@H]3C[C@@H](N)[C@](C)(O)[C@@H](C)C3)ccc2F)c(F)c1 [Example 8, N-(4-((1R,3R,4R,5S)-3-amino-4-hydroxy-4,5-dimethylcyclohexyl)pyridin-3-yl)-6-(2,6-difluoro-4-(methylthio)phenyl)-5-fluoropicolinamide]
3 | 4700 nM | 8.54 nM | 1010 nM | 1620 nM | C[C@H]1C[C@@H](c2ccncc2NC(=O)c2ccc(F)c(-c3c(F)cc(S(C)(=O)=O)cc3F)n2)C[C@@H](O)[C@]1(C)O [Example 9, 6-(2,6-difluoro-4-(methylsulfonyl)phenyl)-N-(4-((1R,3R,4R,5S)-3,4-dihydroxy-4,5-dimethylcyclohexyl)pyridin-3-yl)-5-fluoropicolinamide]
4 | > 10000 nM | 14.6 nM | 7110 nM | 4150 nM | C[C@@H]1C[C@H](c2ccncc2NC(=O)c2ccc(F)c(-c3c(F)cc(S(C)(=O)=O)cc3F)n2)C[C@H](O)[C@@]1(C)O [Example 10, 6-(2,6-difluoro-4-(methylsulfonyl)phenyl)-N-(4-((1S,3S,4S,5R)-3,4-dihydroxy-4,5-dimethylcyclohexyl)pyridin-3-yl)-5-fluoropicolinamide]
5 | 42 nM | 0.07 nM | 4.33 nM | 1.16 nM | Cc1cc(F)c(-c2nc(C(=O)Nc3cnccc3[C@H]3C[C@@H](N)[C@](C)(O)[C@@H](C)C3)ccc2F)c(F)c1 [Example 13, N-(4-((1R,3R,4R,5S)-3-amino-4-hydroxy-4,5-dimethylcyclohexyl)pyridin-3-yl)-6-(2,6-difluoro-4-methylphenyl)-5-fluoropicolinamide]
6 | 5040 nM | 13.7 nM | 776 nM | 231 nM | Cc1cc(F)c(-c2nc(C(=O)Nc3cnccc3[C@H]3C[C@@H](C)[C@](C)(O)[C@@H](N)C3)ccc2F)c(F)c1 [Example 14, N-(4-((1S,3S,4S,5R)-3-amino-4-hydroxy-4,5-dimethyl-cyclohexyl)pyridin-3-yl)-6-(2,6-difluoro-4-methylphenyl)-5-fluoropicolinamide]
7 | 714 nM | 0.67 nM | 47 nM | 10.2 nM | C[C@H]1C[C@@H](c2ccncc2NC(=O)c2nc(-c3c(F)cccc3F)ccc2N)C[C@@H](O)[C@@]1(O)CF [Example 18, 3-amino-6-(2,6-difluorophenyl)-N-(4-((1R,3R,4R,5S)-4-(fluoromethyl)-3,4-dihydroxy-5-methylcyclohexyl)pyridin-3-yl) picolinamide]
8 | 382 nM | 0.85 nM | 201 nM | 39.5 nM | COc1cc(F)c(-c2nc(C(=O)Nc3cnccc3[C@H]3C[C@@H](O)[C@](C)(O)[C@@H](C)C3)ccc2F)c(F)c1 [Example 22, 6-(2,6-difluoro-4-methoxyphenyl)-N-(4-((1R,3R,4R,5S)-3,4-dihydroxy-4,5-dimethylcyclohexyl)pyridin-3-yl)-5-fluoropicolinamide]
9 | 165 nM | 0.02 nM | 1.54 nM | 0.54 nM | CC(C)Oc1cc(F)c(-c2nc(C(=O)Nc3cnccc3[C@H]3C[C@@H](N)[C@](C)(O)[C@@H](C)C3)ccc2F)c(F)c1 [Example 64, N-(4-((1R,3R,4R,5S)-3-amino-4-hydroxy-4,5-dimethylcyclohexyl)pyridin-3-yl)-6-(2,6-difluoro-4-isopropoxyphenyl)-5-fluoropicolinamide]
10 | 38 nM | 0.03 nM | 2.14 nM | 0.73 nM | C[C@H]1C[C@@H](c2ccncc2NC(=O)c2ccc(F)c(-c3c(F)cc(OC4CCOCC4)cc3F)n2)C[C@@H](N)[C@]1(C)O [Example 65, N-(4-((1R,3R,4R,5S)-3-amino-4-hydroxy-4,5-dimethylcyclohexyl)pyridin-3-yl)-6-(2,6-difluoro-4-(tetrahydro-2H-pyran-4-yloxy)phenyl)-5-fluoropicolinamide]
11 | 13 nM | 0.03 nM | 2.92 nM | 1.64 nM | C[C@H]1C[C@@H](c2ccncc2NC(=O)c2ccc(F)c(-c3c(F)cc(C(C)(C)O)cc3F)n2)C[C@@H](N)[C@]1(C)O [Example 66]
12 | 127 nM | 0.01 nM | 2.5 nM | 0.96 nM | C[C@H]1C[C@@H](c2ccncc2NC(=O)c2ccc(F)c(-c3c(F)cc(C4CC4)cc3F)n2)C[C@@H](N)[C@]1(C)O [Example 67, N-(4-((1R,3R,4R,5S)-3-amino-4-hydroxy-4,5-dimethylcyclohexyl)pyridin-3-yl)-6-(4-cyclopropyl-2,6-difluorophenyl)-5-fluoropicolinamide]
13 | 423 nM | 0.09 nM | 6.42 nM | 4.2 nM | C[C@H]1C[C@@H](c2ccncc2NC(=O)c2ccc(F)c(-c3c(F)cc(C4(F)COC4)cc3F)n2)C[C@@H](N)[C@]1(C)O [Example 69, N-(4-((1R,3R,4R,5S)-3-amino-4-hydroxy-4,5-dimethylcyclohexyl)pyridin-3-yl)-6-(2,6-difluoro-4-(3-fluorooxetan-3-yl)phenyl)-5-fluoropicolinamide]
14 | 136 nM | 0.04 nM | 2.21 nM | 1.73 nM | C[C@H]1C[C@@H](c2ccncc2NC(=O)c2ccc(F)c(-c3c(F)cc(C4(F)CCOCC4)cc3F)n2)C[C@@H](N)[C@]1(C)O [Example 70, N-(4-((1R,3R,4R,5S)-3-amino-4-hydroxy-4,5-dimethylcyclohexyl)pyridin-3-yl)-6-(2,6-difluoro-4-(4-fluorotetrahydro-2H-pyran-4-yl)phenyl)-5-fluoropicolinamide]
15 | 81 nM | 0.02 nM | 1.47 nM | 0.72 nM | C[C@H]1C[C@@H](c2ccncc2NC(=O)c2ccc(F)c(-c3c(F)cc(C4CCOCC4)cc3F)n2)C[C@@H](N)[C@]1(C)O [Example 71, N-(4-((1R,3R,4R,5S)-3-amino-4-hydroxy-4,5-dimethylcyclohexyl)pyridin-3-yl)-6-(2,6-difluoro-4-(tetrahydro-2H-pyran-4-yl)phenyl)-5-fluoropicolinamide]
16 | 189 nM | 0.42 nM | 156 nM | 63.1 nM | C[C@H]1C[C@@H](c2ccncc2NC(=O)c2ccc(F)c(-c3c(F)cc(C(C)(C)O)cc3F)n2)C[C@@H](O)[C@]1(C)O [Example 73, 6-(2,6-difluoro-4-(2-hydroxypropan-2-yl)phenyl)-N-(4-((1R,3R,4R,5S)-3,4-dihydroxy-4,5-dimethylcyclohexyl)pyridin-3-yl)-5-fluoropicolinamide]
17 | 3470 nM | 18.8 nM | 6340 nM | 2870 nM | C[C@@H]1C[C@H](c2ccncc2NC(=O)c2ccc(F)c(-c3c(F)cc(C(C)(C)O)cc3F)n2)C[C@H](O)[C@@]1(C)O [Example 74, 6-(2,6-difluoro-4-(2-hydroxypropan-2-yl)phenyl)-N-(4-((1S,3S,4S,5R)-3,4-dihydroxy-4,5-dimethylcyclohexyl)pyridin-3-yl)-5-fluoropicolinamide]
18 | 5780 nM | 39.1 nM | 8640 nM | 5900 nM | C[C@@H]1C[C@H](c2ccncc2NC(=O)c2ccc(F)c(-c3c(F)cc(C4(O)COC4)cc3F)n2)C[C@H](O)[C@@]1(C)O [Example 75]
19 | 1140 nM | 0.82 nM | 264 nM | 117 nM | C[C@H]1C[C@@H](c2ccncc2NC(=O)c2ccc(F)c(-c3c(F)cc(C4(O)COC4)cc3F)n2)C[C@@H](O)[C@]1(C)O [Example 76]
20 | 136 nM | 0.97 nM | 93.7 nM | 83.3 nM | C[C@H]1C[C@@H](c2ccncc2NC(=O)c2ccc(F)c(-c3c(F)cc(CN4CCCC4=O)cc3F)n2)C[C@@H](O)[C@]1(C)O [Example 77, 6-(2,6-difluoro-4-((2-oxopyrrolidin-1-yl)methyl)phenyl)-N-(4-((1R,3R,4R,5S)-3,4-dihydroxy-4,5-dimethylcyclohexyl)pyridin-3-yl)-5-fluoropicolinamide]
21 | > 10000 nM | 18.7 nM | 1570 nM | 969 nM | C[C@@H]1C[C@H](c2ccncc2NC(=O)c2ccc(F)c(-c3c(F)cc(CN4CCCC4=O)cc3F)n2)C[C@H](O)[C@@]1(C)O [Example 78, 6-(2,6-difluoro-4-((2-oxopyrrolidin-1-yl)methyl)phenyl)-N-(4-((1S,3S,4S,5R)-3,4-dihydroxy-4,5-dimethylcyclohexyl)pyridin-3-yl)-5-fluoropicolinamide]
22 | > 10000 nM | 6.73 nM | 619 nM | 470 nM | C[C@@H]1C[C@H](c2ccncc2NC(=O)c2ccc(F)c(-c3c(F)cc(C4(O)CCCC4)cc3F)n2)C[C@H](O)[C@@]1(C)O [Example 79, 6-(2,6-difluoro-4-(1-hydroxycyclopentyl)phenyl)-N-(4-((1S,3S,4S,5R)-3,4-dihydroxy-4,5-dimethylcyclohexyl)pyridin-3-yl)-5-fluoropicolinamide]
